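Dose response: 5 concentrations. Exposure: 48 h. Format: 96-well plates. Endpoint: linear interpolation; highest concentration if not reached. GI50: concentration for 50% inhibition of growth. Definition used: TGI = concentration required for complete inhibition of growth.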
How the values were obtained:
Test in all cases: NCI tumour cell line growth inhibition, 48 h
RPMI-8226 leukemia = system: RPMI-8226 leukemia
SK-OV-3 ovarian = system: SK-OV-3 ovarian
HT29 colon = system: HT29 colon
NCI-H226 lung = system: NCI-H226 lung
MCF7 breast = system: MCF7 breast
SK-MEL-28 melanoma = system: SK-MEL-28 melanoma
HCT-116 colon = system: HCT-116 colon
CAKI-1 renal = system: CAKI-1 renal
MDA-MB-435 = system: MDA-MB-435
PC-3 prostate = system: PC-3 prostate
U251 CNS = system: U251 CNS
IGROV1 ovarian = system: IGROV1 ovarian
SR leukemia = system: SR leukemia
UACC-257 melanoma = system: UACC-257 melanoma
OVCAR-3 ovarian = system: OVCAR-3 ovarian
OVCAR-8 ovarian = system: OVCAR-8 ovarian
HCT-15 colon = system: HCT-15 colon
UACC-62 melanoma = system: UACC-62 melanoma
K-562 leukemia = system: K-562 leukemia
LOX IMVI melanoma = system: LOX IMVI melanoma
SF-295 CNS = system: SF-295 CNS
SF-539 CNS = system: SF-539 CNS
OVCAR-4 ovarian = system: OVCAR-4 ovarian
KM12 colon = system: KM12 colon
NCI-H522 lung = system: NCI-H522 lung
OVCAR-5 ovarian = system: OVCAR-5 ovarian
MDA-MB-231 breast = system: MDA-MB-231 breast
A549 NSCLC = system: A549 NSCLC
HCC-2998 colon = system: HCC-2998 colon
BT-549 breast = system: BT-549 breast
HL-60(TB) leukemia = system: HL-60(TB) leukemia
A498 renal = system: A498 renal
SK-MEL-2 melanoma = system: SK-MEL-2 melanoma
SF-268 CNS = system: SF-268 CNS
HOP-92 NSCLC = system: HOP-92 NSCLC
SK-MEL-5 melanoma = system: SK-MEL-5 melanoma
RXF 393 renal = system: RXF 393 renal
DU-145 prostate = system: DU-145 prostate
M14 melanoma = system: M14 melanoma
T-47D breast = system: T-47D breast
SW-620 colon = system: SW-620 colon
NCI-H23 lung = system: NCI-H23 lung
SNB-19 CNS = system: SNB-19 CNS
CCRF-CEM leukemia = system: CCRF-CEM leukemia
NCI-H460 lung = system: NCI-H460 lung
TK-10 renal = system: TK-10 renal
COLO 205 colon = system: COLO 205 colon
ACHN renal = system: ACHN renal
UO-31 renal = system: UO-31 renal
EKVX NSCLC = system: EKVX NSCLC
SN12C renal = system: SN12C renal
HS 578T breast = system: HS 578T breast
NCI/ADR-RES ovarian = system: NCI/ADR-RES ovarian
786-0 renal = system: 786-0 renal
MOLT-4 leukemia = system: MOLT-4 leukemia
MALME-3M melanoma = system: MALME-3M melanoma
HOP-62 NSCLC = system: HOP-62 NSCLC

Question: Which GI50 (RPMI-8226 leukemia) does the source give for `C=C1C(=O)O[C@H]2[C@H]1CC/C(COC(=O)NCc1ccc(Cn3c(=O)sn(CCCC)c3=O)cc1)=C\CC[C@@]1(C)O[C@@H]21` here?
Answer: 1.48 µM

Question: What about the TGI (RPMI-8226 leukemia) of the same compound?
Answer: 4.07 µM

Question: What about the GI50 (SK-OV-3 ovarian) of the same compound?
Answer: 15.2 µM

Question: What about the TGI (SK-OV-3 ovarian) of the same compound?
Answer: 28.7 µM

Question: And the GI50 (HT29 colon)?
Answer: 2.08 µM

Question: And the TGI (HT29 colon)?
Answer: 4.18 µM

Question: What about the GI50 (NCI-H226 lung) of the same compound?
Answer: 11.9 µM

Question: And the TGI (NCI-H226 lung)?
Answer: 29.8 µM

Question: And the GI50 (MCF7 breast)?
Answer: 1.87 µM

Question: What about the TGI (MCF7 breast) of the same compound?
Answer: 3.91 µM

Question: What about the GI50 (SK-MEL-28 melanoma) of the same compound?
Answer: 1.8 µM

Question: And the TGI (SK-MEL-28 melanoma)?
Answer: 3.36 µM

Question: What about the GI50 (HCT-116 colon) of the same compound?
Answer: 1.36 µM

Question: And the TGI (HCT-116 colon)?
Answer: 2.78 µM

Question: And the GI50 (CAKI-1 renal)?
Answer: 1.64 µM

Question: And the TGI (CAKI-1 renal)?
Answer: 3.24 µM

Question: What about the GI50 (MDA-MB-435) of the same compound?
Answer: 1.65 µM

Question: And the TGI (MDA-MB-435)?
Answer: 3.22 µM

Question: What about the GI50 (PC-3 prostate) of the same compound?
Answer: 1.75 µM

Question: And the TGI (PC-3 prostate)?
Answer: 3.56 µM

Question: And the GI50 (U251 CNS)?
Answer: 4.15 µM

Question: And the TGI (U251 CNS)?
Answer: 15.5 µM

Question: And the GI50 (IGROV1 ovarian)?
Answer: 1.83 µM

Question: And the TGI (IGROV1 ovarian)?
Answer: 3.93 µM

Question: And the GI50 (SR leukemia)?
Answer: 0.407 µM

Question: What about the TGI (SR leukemia) of the same compound?
Answer: 5.39 µM

Question: What about the GI50 (UACC-257 melanoma) of the same compound?
Answer: 2.03 µM

Question: What about the TGI (UACC-257 melanoma) of the same compound?
Answer: 4.93 µM

Question: What about the GI50 (OVCAR-3 ovarian) of the same compound?
Answer: 1.59 µM

Question: What about the TGI (OVCAR-3 ovarian) of the same compound?
Answer: 2.97 µM

Question: What about the GI50 (OVCAR-8 ovarian) of the same compound?
Answer: 3.64 µM

Question: What about the TGI (OVCAR-8 ovarian) of the same compound?
Answer: 15.2 µM

Question: What about the GI50 (HCT-15 colon) of the same compound?
Answer: 2.02 µM

Question: What about the TGI (HCT-15 colon) of the same compound?
Answer: 3.76 µM

Question: And the GI50 (UACC-62 melanoma)?
Answer: 1.62 µM

Question: What about the TGI (UACC-62 melanoma) of the same compound?
Answer: 3.22 µM

Question: What about the GI50 (K-562 leukemia) of the same compound?
Answer: 0.891 µM

Question: What about the TGI (K-562 leukemia) of the same compound?
Answer: > 100 µM

Question: What about the GI50 (LOX IMVI melanoma) of the same compound?
Answer: 1.65 µM

Question: And the TGI (LOX IMVI melanoma)?
Answer: 3.08 µM

Question: What about the GI50 (SF-295 CNS) of the same compound?
Answer: 15.3 µM

Question: What about the TGI (SF-295 CNS) of the same compound?
Answer: 29 µM

Question: What about the GI50 (SF-539 CNS) of the same compound?
Answer: 1.68 µM

Question: And the TGI (SF-539 CNS)?
Answer: 3.24 µM

Question: And the GI50 (OVCAR-4 ovarian)?
Answer: 1.52 µM

Question: What about the TGI (OVCAR-4 ovarian) of the same compound?
Answer: 3.05 µM

Question: What about the GI50 (KM12 colon) of the same compound?
Answer: 14.8 µM

Question: What about the TGI (KM12 colon) of the same compound?
Answer: 29.4 µM

Question: What about the GI50 (NCI-H522 lung) of the same compound?
Answer: 1.19 µM

Question: What about the TGI (NCI-H522 lung) of the same compound?
Answer: 2.88 µM

Question: And the GI50 (OVCAR-5 ovarian)?
Answer: 1.93 µM

Question: And the TGI (OVCAR-5 ovarian)?
Answer: 4.06 µM

Question: And the GI50 (MDA-MB-231 breast)?
Answer: 1.8 µM

Question: And the TGI (MDA-MB-231 breast)?
Answer: 3.57 µM

Question: What about the GI50 (A549 NSCLC) of the same compound?
Answer: 13.4 µM

Question: And the TGI (A549 NSCLC)?
Answer: 28.7 µM

Question: What about the GI50 (HCC-2998 colon) of the same compound?
Answer: 4.1 µM

Question: And the TGI (HCC-2998 colon)?
Answer: 13.4 µM

Question: And the GI50 (BT-549 breast)?
Answer: 1.56 µM

Question: What about the TGI (BT-549 breast) of the same compound?
Answer: 3.03 µM

Question: And the GI50 (HL-60(TB) leukemia)?
Answer: 1.81 µM

Question: What about the TGI (HL-60(TB) leukemia) of the same compound?
Answer: 5.42 µM

Question: What about the GI50 (A498 renal) of the same compound?
Answer: 3.28 µM

Question: And the TGI (A498 renal)?
Answer: 14.1 µM

Question: And the GI50 (SK-MEL-2 melanoma)?
Answer: 4.52 µM

Question: And the TGI (SK-MEL-2 melanoma)?
Answer: 17 µM

Question: What about the GI50 (SF-268 CNS) of the same compound?
Answer: 4.28 µM

Question: And the TGI (SF-268 CNS)?
Answer: 17.2 µM

Question: And the GI50 (HOP-92 NSCLC)?
Answer: 1.29 µM

Question: What about the TGI (HOP-92 NSCLC) of the same compound?
Answer: 2.72 µM

Question: What about the GI50 (SK-MEL-5 melanoma) of the same compound?
Answer: 3.18 µM

Question: What about the TGI (SK-MEL-5 melanoma) of the same compound?
Answer: 9.48 µM

Question: And the GI50 (RXF 393 renal)?
Answer: 1.57 µM

Question: And the TGI (RXF 393 renal)?
Answer: 3.04 µM

Question: And the GI50 (DU-145 prostate)?
Answer: 1.81 µM

Question: What about the TGI (DU-145 prostate) of the same compound?
Answer: 3.36 µM

Question: And the GI50 (M14 melanoma)?
Answer: 1.45 µM

Question: What about the TGI (M14 melanoma) of the same compound?
Answer: 2.97 µM

Question: And the GI50 (T-47D breast)?
Answer: 2.04 µM

Question: And the TGI (T-47D breast)?
Answer: 4.83 µM

Question: And the GI50 (SW-620 colon)?
Answer: 1.51 µM

Question: And the TGI (SW-620 colon)?
Answer: 3.09 µM

Question: And the GI50 (NCI-H23 lung)?
Answer: 4.19 µM

Question: And the TGI (NCI-H23 lung)?
Answer: 15.3 µM

Question: And the GI50 (SNB-19 CNS)?
Answer: 6.63 µM

Question: And the TGI (SNB-19 CNS)?
Answer: 19.6 µM

Question: What about the GI50 (CCRF-CEM leukemia) of the same compound?
Answer: 0.657 µM

Question: And the TGI (CCRF-CEM leukemia)?
Answer: 4.56 µM

Question: And the GI50 (NCI-H460 lung)?
Answer: 5.92 µM

Question: What about the TGI (NCI-H460 lung) of the same compound?
Answer: 19.6 µM

Question: What about the GI50 (TK-10 renal) of the same compound?
Answer: 1.81 µM

Question: What about the TGI (TK-10 renal) of the same compound?
Answer: 3.59 µM

Question: And the GI50 (COLO 205 colon)?
Answer: 2 µM

Question: What about the TGI (COLO 205 colon) of the same compound?
Answer: 3.88 µM

Question: What about the GI50 (ACHN renal) of the same compound?
Answer: 1.67 µM

Question: What about the TGI (ACHN renal) of the same compound?
Answer: 3.08 µM

Question: What about the GI50 (UO-31 renal) of the same compound?
Answer: 1.45 µM

Question: And the TGI (UO-31 renal)?
Answer: 2.78 µM

Question: What about the GI50 (EKVX NSCLC) of the same compound?
Answer: 3.32 µM

Question: What about the TGI (EKVX NSCLC) of the same compound?
Answer: 9.83 µM

Question: And the GI50 (SN12C renal)?
Answer: 1.73 µM

Question: What about the TGI (SN12C renal) of the same compound?
Answer: 3.93 µM

Question: What about the GI50 (HS 578T breast) of the same compound?
Answer: 3.24 µM

Question: What about the TGI (HS 578T breast) of the same compound?
Answer: 12.7 µM

Question: What about the GI50 (NCI/ADR-RES ovarian) of the same compound?
Answer: 27.8 µM

Question: What about the TGI (NCI/ADR-RES ovarian) of the same compound?
Answer: 97.9 µM

Question: What about the GI50 (786-0 renal) of the same compound?
Answer: 2 µM

Question: And the TGI (786-0 renal)?
Answer: 4.02 µM

Question: What about the GI50 (MOLT-4 leukemia) of the same compound?
Answer: 1.55 µM

Question: And the TGI (MOLT-4 leukemia)?
Answer: 5.73 µM

Question: What about the GI50 (MALME-3M melanoma) of the same compound?
Answer: 1.6 µM

Question: And the TGI (MALME-3M melanoma)?
Answer: 3.32 µM

Question: And the GI50 (HOP-62 NSCLC)?
Answer: 12.7 µM

Question: And the TGI (HOP-62 NSCLC)?
Answer: 26.6 µM
